Assay results as given in patent publication US4540702A, “2-Substituted-4-thiazolidones” (Kureha Kagaku Kogyo Kabushiki Kaisha, priority 1979, dated 1985).

Legend:
Assay type in all cases: in vivo
[1] = Effect against peptic ulcer formed by ligating the pylorus (Shay et al.); conditions: pylorus-ligated rat, 100 mg/kg intraperitoneal; for inhibition in vivo at 100 mg/kg: Rattus norvegicus, ip, 15 h, vs control group, read-out: Rate of suppression of peptic ulcer; for Coefficient of peptic ulcer: 15 hours
Description: Each male rat of a group consisting of 10 animals, weighing 180 to 200 g, after 48 hours' fasting, was subjected to ligature at its pyloric part under the anesthesia by ether following the method of Shay et al. (refer to Gastroenterology, Vol. 5, 43, 1945). Just after the ligature, each of the present compounds suspended in an aqueous physiological saline solution was injected into each rat's abdominal cavity at a dose rate of 100 mg/kg body weight, the control group being injected with an aqueous physiological saline solution. After keeping the rats at a state of fasting without taking water for 15 hours, the rats were sacrificed by ether and their stomachs were removed to examine under a microscope for autopsy. The longitudinal and horizontal lengths of the thus formed peptic ulcer were determined and expressed by the product (mm^2), and the total sum of the products was represented as the coefficient of ulcer.
The rate of suppression of peptic ulcer (%) is expressed by the ratio of the difference between the coefficient of peptic ulcer of control group and the coefficient of peptic ulcer of the treated group to the coefficient of peptic ulcer of control group multiplied by 100.

[2] = Effect on duodenal peptic ulcer induced by acetic acid (Okabe et al.); conditions: oral 100 mg/kg/day, three times a day for 10 days; for inhibition in vivo at 100 mg/kg/day: Rattus norvegicus, po, 240 h, vs control group, read-out: Rate of curation of peptic ulcer; for Coefficient of peptic ulcer: acetic acid duodenal ulcer rat
From the text: The inventors of the present invention, taking into account of these situations, added to the method of evaluation the effect of accelerating the curation of the peptic ulcer by orally administering the present compound and a commercialized anti-peptic medicine, respectively to rats to which duodenal peptic ulcer due to acetic acid (refer to Okabe, 1971) considered to be most closely resembling to human peptic ulcer has been artificially formed.
Following the method of Okabe et al. (refer to Amer. J. Dig. Dis., Vol. 16, 277, 1971), each male rat weighing 240 to 260 g of a group consisting of 15 animals was subjected to laparotomy under ether-anesthesia and a metal circular frame was put on a part of the serosa at the distance of 5 to 7 mm from the duodenal pylorus and 0.06 ml of glacial acetic acid was poured on the circular part of the frame. After 30 seconds, the acetic liquid was removed and the frame was also removed. Each of the present compounds suspended in an aqueous 0.5% CMC solution was orally administered to the rat from after 3 days of the operation three times a day for consecutive 10 days, rats of control group being given the aqueous 0.5% CMC solution. After ending the administration, the rats were sacrificed by ether, their duodenum being removed to be examined under a microscope for autopsy. The longitudinal and horizontal lengths of the thus formed ulcer were determined and the product of the lengths expressed by mm^2 was recorded as the coefficient of peptic ulcer. The rate of curation of peptic ulcer, in this Example is calculated by the same manner as the rate of suppression of peptic ulcer in Example 5.

[3] = Suppressive action on gastric secretion (pyloric ligature); conditions: rat, intraduodenal 200 mg/kg, 4 hours; for Rate of suppression on gastric secretion: vs control
Description: Groups of male rats (a group consisted of 10 animals) were subjected to pyloric ligature under etherization after fasting for 24 hours, and each of the compounds to be tested was administered intraduodenally as an emulsion or suspension in an aqueous 0.5% by weight solution of sodium carboxymethylcellulose just after ligation. After 4 hours of the laparotomy, the stomach of each rat was extirpated under etherization, and the amount of gastric juice in the stomach was measured.

Compound: COc1ccc(C2NC(=O)CS2)cc1OC (stereo not drawn) [2-(3,4-dimethoxyphenyl)-4-thiazolidone]
- inhibition in vivo at 100 mg/kg [1]: 91.9%
- Coefficient of peptic ulcer [1]: 3.4 mm^2
- inhibition in vivo at 100 mg/kg/day [2]: 80%
- Coefficient of peptic ulcer [2]: 1.5 mm^2
- Amount of gastric juice [3]: 3.3 mL
- Rate of suppression on gastric secretion [3]: 50.7%

Compound: COc1ccc(OC)c(C2NC(=O)CS2)c1 (stereo not drawn) [2-(2,5-dimethoxyphenyl)-4-thiazolidone]
- inhibition in vivo at 100 mg/kg [1]: 79%
- Coefficient of peptic ulcer [1]: 9.4 mm^2
- inhibition in vivo at 100 mg/kg/day [2]: 65.3%
- Coefficient of peptic ulcer [2]: 2.6 mm^2
- Amount of gastric juice [3]: 3.5 mL
- Rate of suppression on gastric secretion [3]: 32.8%

Compound: COc1cccc(C2NC(=O)CS2)c1 (stereo not drawn) [2-(3-methoxyphenyl)-4-thiazolidone]
- inhibition in vivo at 100 mg/kg [1]: 86%
- Coefficient of peptic ulcer [1]: 5.5 mm^2
- inhibition in vivo at 100 mg/kg/day [2]: 73.3%
- Coefficient of peptic ulcer [2]: 2.0 mm^2

Compound: COc1cccc(C2NC(=O)CS2)c1OC (stereo not drawn) [2-(2,3-dimethoxyphenyl)-4-thiazolidone]
- inhibition in vivo at 100 mg/kg [1]: 82.9%
- Coefficient of peptic ulcer [1]: 8.8 mm^2
- inhibition in vivo at 100 mg/kg/day [2]: 82.7%
- Coefficient of peptic ulcer [2]: 1.3 mm^2
- Amount of gastric juice [3]: 3.7 mL
- Rate of suppression on gastric secretion [3]: 44.7%

Compound: CC(C)=CCCC(C)=CCCC(C)=CCCC(=O)OCC=C(C)CCC=C(C)C [Gefarnate, 3,7dimethyl-2,6-octadienyl 5,9,13trimethyl-4,8,12-tetradecatrienoate, reference compound]
- inhibition in vivo at 100 mg/kg [1]: ~11%
- Coefficient of peptic ulcer [1]: 37.4 mm^2
- inhibition in vivo at 100 mg/kg/day [2]: 23%
- Coefficient of peptic ulcer [2]: 5.8 mm^2
- Amount of gastric juice [3]: 6.5 mL
- Rate of suppression on gastric secretion [3]: 2.9%

Compound: CCOc1ccccc1C1NC(=O)CS1 (stereo not drawn) [2-(2-ethoxyphenyl)-4-thiazolidone]
- inhibition in vivo at 100 mg/kg [1]: 81.9%
- Coefficient of peptic ulcer [1]: 7.6 mm^2
- inhibition in vivo at 100 mg/kg/day [2]: 76%
- Coefficient of peptic ulcer [2]: 1.8 mm^2
- Amount of gastric juice [3]: 4.3 mL
- Rate of suppression on gastric secretion [3]: 35.8%

Compound: COc1cc(C2NC(=O)CS2)cc(OC)c1OC (stereo not drawn) [2-(3,4,5-trimethoxyphenyl)-4-thiazolidone]
- inhibition in vivo at 100 mg/kg [1]: 85.8%
- Coefficient of peptic ulcer [1]: 6.5 mm^2
- inhibition in vivo at 100 mg/kg/day [2]: 82.1%
- Coefficient of peptic ulcer [2]: 1.4 mm^2

Compound: COc1cc(C2NC(=O)CS2)cc(OC)c1O (stereo not drawn) [2-(3,5-dimethoxy-4-hydroxyphenyl)-4-thiazolidone]
- inhibition in vivo at 100 mg/kg [1]: 81.9%
- Coefficient of peptic ulcer [1]: 7.6 mm^2
- inhibition in vivo at 100 mg/kg/day [2]: 88%
- Coefficient of peptic ulcer [2]: 2.4 mm^2

Compound: CN(C)c1ccc(C2NC(=O)CS2)cc1 (stereo not drawn) [2-(4-dimethylaminophenyl)-4-thiazolidone]
- inhibition in vivo at 100 mg/kg [1]: 75%
- Coefficient of peptic ulcer [1]: 10.5 mm^2
- inhibition in vivo at 100 mg/kg/day [2]: 88%
- Coefficient of peptic ulcer [2]: 2.4 mm^2

Compound: O=C1CSC(c2ccccc2C(=O)O)N1 (stereo not drawn) [2-(2-carboxyphenyl)-4-thiazolidone]
- inhibition in vivo at 100 mg/kg [1]: 79.8%
- Coefficient of peptic ulcer [1]: 8.5 mm^2
- inhibition in vivo at 100 mg/kg/day [2]: 60%
- Coefficient of peptic ulcer [2]: 3.0 mm^2

Compound: COc1ccccc1C1NC(=O)CS1 (stereo not drawn) [2-(2-methoxyphenyl)-4-thiazolidone]
- inhibition in vivo at 100 mg/kg [1]: 87.4%
- Coefficient of peptic ulcer [1]: 5.3 mm^2
- inhibition in vivo at 100 mg/kg/day [2]: 80%
- Coefficient of peptic ulcer [2]: 1.5 mm^2
- Amount of gastric juice [3]: 4.0 mL
- Rate of suppression on gastric secretion [3]: 40.2%

Compound: COc1ccc(C2NC(=O)CS2)cc1 (stereo not drawn) [2-(4-methoxyphenyl)-4-thiazolidone]
- inhibition in vivo at 100 mg/kg [1]: 68.1%
- Coefficient of peptic ulcer [1]: 13.4 mm^2
- inhibition in vivo at 100 mg/kg/day [2]: 58.7%
- Coefficient of peptic ulcer [2]: 3.1 mm^2
